{"source": "paper PMC8222254", "about": "“Self-assembly of an anion receptor with metal-dependent kinase inhibition and potent in vitro anti-cancer properties” (Nature Communications, 2021)", "test_in_all_cases": "Kinase inhibition screen, cell-free 33P ATP assay at 10 μM", "format_in_all_cases": "biochemical", "key": {"[1]": {"target": "140 purified human kinases (Homo sapiens, UniProt O96017)", "sequence (O96017 whole entry)": "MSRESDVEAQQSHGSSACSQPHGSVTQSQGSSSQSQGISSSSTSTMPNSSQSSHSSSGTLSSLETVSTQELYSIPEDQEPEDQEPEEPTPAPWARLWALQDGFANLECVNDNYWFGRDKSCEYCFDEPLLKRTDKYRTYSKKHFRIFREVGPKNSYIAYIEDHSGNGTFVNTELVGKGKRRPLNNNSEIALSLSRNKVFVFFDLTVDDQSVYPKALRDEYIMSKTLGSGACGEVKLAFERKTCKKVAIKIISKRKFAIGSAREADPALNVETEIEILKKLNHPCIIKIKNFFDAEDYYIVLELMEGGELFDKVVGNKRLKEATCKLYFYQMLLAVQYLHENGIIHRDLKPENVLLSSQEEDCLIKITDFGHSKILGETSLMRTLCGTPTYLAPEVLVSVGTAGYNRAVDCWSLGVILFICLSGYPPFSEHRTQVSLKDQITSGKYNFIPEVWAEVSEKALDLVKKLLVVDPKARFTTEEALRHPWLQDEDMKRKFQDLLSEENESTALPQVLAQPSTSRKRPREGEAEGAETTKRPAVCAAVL", "method_in_brief": "(§1)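 Each complex tested in duplicate at 10 μM; cell-free radiometric assay using ^33P ATP on purified enzymes. Hits mapped by HGNC symbol onto the kinome tree.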"}, "[2]": {"target": "140 purified human kinases (Homo sapiens, UniProt P17252)", "conditions": "PKCa", "method_in_brief": "as §1"}, "[3]": {"target": "140 purified human kinases (Homo sapiens, UniProt P28482)", "sequence (P28482 whole entry)": "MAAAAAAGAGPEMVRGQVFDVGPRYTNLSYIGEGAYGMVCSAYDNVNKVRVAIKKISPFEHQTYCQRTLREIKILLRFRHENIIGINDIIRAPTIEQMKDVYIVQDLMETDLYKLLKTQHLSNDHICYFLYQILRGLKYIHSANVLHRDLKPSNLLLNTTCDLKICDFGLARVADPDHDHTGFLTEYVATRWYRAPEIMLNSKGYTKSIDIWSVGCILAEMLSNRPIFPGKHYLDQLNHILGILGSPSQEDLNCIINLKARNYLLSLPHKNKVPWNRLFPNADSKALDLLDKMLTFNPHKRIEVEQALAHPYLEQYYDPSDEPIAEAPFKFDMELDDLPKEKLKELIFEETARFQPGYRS", "method_in_brief": "as §1"}, "[4]": {"target": "140 purified human kinases (Homo sapiens, UniProt Q16644)", "sequence (Q16644 whole entry)": "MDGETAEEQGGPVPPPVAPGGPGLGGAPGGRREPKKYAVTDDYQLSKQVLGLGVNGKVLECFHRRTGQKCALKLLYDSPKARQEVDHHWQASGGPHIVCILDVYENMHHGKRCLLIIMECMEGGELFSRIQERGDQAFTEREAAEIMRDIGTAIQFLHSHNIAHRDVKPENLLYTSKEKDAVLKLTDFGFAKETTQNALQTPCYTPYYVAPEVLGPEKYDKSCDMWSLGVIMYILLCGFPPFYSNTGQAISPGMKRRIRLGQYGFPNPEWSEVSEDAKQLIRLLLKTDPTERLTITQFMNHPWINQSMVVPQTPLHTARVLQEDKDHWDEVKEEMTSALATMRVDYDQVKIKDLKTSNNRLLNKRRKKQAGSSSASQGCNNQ", "conditions": "for % Activity inhibition Mean / % Activity inhibition Run 1 / % Activity inhibition Run 2 / % Activity remaining Run 1 / % Activity remaining Run 2: 10 µM", "method_in_brief": "as §1"}, "[5]": {"target": "T1, 140 purified human kinases (Homo sapiens, UniProt Q9NZJ5)", "T1 sequence (Q9NZJ5 30-1116)": "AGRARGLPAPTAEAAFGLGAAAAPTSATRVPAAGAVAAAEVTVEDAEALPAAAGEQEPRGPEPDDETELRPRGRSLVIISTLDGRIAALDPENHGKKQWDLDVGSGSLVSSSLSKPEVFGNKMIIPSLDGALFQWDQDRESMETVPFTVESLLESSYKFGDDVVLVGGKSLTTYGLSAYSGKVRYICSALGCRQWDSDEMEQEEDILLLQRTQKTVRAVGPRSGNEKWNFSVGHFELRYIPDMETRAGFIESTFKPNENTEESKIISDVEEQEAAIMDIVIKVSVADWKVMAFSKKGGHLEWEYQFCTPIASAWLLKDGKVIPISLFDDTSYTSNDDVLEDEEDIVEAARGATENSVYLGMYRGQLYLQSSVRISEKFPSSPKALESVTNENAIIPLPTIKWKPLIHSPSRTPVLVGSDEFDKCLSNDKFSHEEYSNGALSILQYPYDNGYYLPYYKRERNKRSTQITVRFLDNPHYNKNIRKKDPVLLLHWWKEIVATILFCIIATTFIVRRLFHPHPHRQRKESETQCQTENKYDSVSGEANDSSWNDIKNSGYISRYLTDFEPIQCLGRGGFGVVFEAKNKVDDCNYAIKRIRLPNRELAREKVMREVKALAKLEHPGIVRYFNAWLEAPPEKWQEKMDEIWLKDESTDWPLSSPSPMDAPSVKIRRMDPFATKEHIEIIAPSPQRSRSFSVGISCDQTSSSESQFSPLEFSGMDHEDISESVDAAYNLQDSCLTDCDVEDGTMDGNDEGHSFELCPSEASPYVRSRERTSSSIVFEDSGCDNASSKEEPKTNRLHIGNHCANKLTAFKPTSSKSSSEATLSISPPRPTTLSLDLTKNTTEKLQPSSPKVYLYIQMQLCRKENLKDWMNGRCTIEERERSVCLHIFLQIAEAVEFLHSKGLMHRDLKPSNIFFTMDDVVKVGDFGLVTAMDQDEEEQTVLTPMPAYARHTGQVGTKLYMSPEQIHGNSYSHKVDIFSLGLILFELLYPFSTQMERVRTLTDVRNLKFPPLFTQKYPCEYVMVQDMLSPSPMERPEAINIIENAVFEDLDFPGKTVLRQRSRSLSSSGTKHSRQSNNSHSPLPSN", "method_in_brief": "as §1"}, "[6]": {"target": "T2, 140 purified human kinases (Tribolium castaneum, UniProt D6WMX4)", "T2 sequence (D6WMX4 6-570)": "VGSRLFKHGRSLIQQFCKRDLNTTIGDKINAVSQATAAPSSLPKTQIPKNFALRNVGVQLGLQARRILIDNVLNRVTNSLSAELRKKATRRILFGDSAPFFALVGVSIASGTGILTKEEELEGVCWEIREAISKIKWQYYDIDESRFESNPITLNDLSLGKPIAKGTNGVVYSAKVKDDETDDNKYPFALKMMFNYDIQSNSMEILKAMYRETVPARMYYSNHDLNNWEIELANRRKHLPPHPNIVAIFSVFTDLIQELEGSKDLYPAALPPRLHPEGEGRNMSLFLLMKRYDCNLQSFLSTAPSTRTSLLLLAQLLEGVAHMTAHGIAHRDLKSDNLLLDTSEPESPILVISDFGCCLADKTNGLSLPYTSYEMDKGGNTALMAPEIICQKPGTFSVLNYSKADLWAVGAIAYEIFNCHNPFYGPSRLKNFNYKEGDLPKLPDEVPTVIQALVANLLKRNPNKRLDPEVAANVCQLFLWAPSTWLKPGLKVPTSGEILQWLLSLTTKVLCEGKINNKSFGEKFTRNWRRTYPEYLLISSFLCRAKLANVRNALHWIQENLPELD", "conditions": "PINK", "method_in_brief": "as §1"}}, "note": "Values joined by “and” are separate entries in the source; they are usually repeats but may differ in a detail not shown here. Equal values may be shown once."}
{"smiles": "CC(=O)[O-].CC(=O)[O-].CC(=O)[O-].CC(=O)[O-].CC(=O)[O-].CC(=O)[O-].[Zn+2].[Zn+2].[Zn+2].c1ccc(-c2csc(NCCN(CCNc3nc(-c4ccccn4)cs3)CCNc3nc(-c4ccccn4)cs3)n2)nc1.c1ccc(-c2csc(NCCN(CCNc3nc(-c4ccccn4)cs3)CCNc3nc(-c4ccccn4)cs3)n2)nc1", "note": "[[L2Zn3]6+]", "values": [{"measurement": "% Inhibition, Mean", "setting": "[1]; CHK2", "value": 22, "unit": "%"}, {"measurement": "mean % activity", "setting": "[1]; CHK2", "value": 78, "unit": "%"}, {"measurement": "% activity", "setting": "[1]; CHK2, duplicate runs", "value": "64% and 92%"}, {"measurement": "% Inhibition, Mean", "setting": "[2]", "value": 42, "unit": "%"}, {"measurement": "% Inhibition, Run 1 / Run 2", "setting": "[2]", "value": "45% and 40%"}, {"measurement": "mean % activity", "setting": "[2]", "value": 58, "unit": "%"}, {"measurement": "% activity", "setting": "[2]; duplicate runs", "value": "56% and 60%"}, {"measurement": "% Inhibition, Mean", "setting": "[3]; ERK2", "value": 18, "unit": "%"}, {"measurement": "% Inhibition, Run 1 / Run 2", "setting": "[3]; ERK2", "value": "19% and 18%"}, {"measurement": "mean % activity", "setting": "[3]; ERK2", "value": 82, "unit": "%"}, {"measurement": "% activity", "setting": "[3]; ERK2, duplicate runs", "value": "81% and 82%"}, {"measurement": "% Inhibition, Mean", "setting": "[4]; MAPKAP-K3", "value": 93, "unit": "%"}, {"measurement": "% Inhibition, Run 1 / Run 2", "setting": "[4]; MAPKAP-K3", "value": "94% and 92%"}, {"measurement": "mean % activity", "setting": "[4]; MAPKAP-K3", "value": 6.6, "unit": "%"}, {"measurement": "% Activity inhibition Mean", "setting": "[4]; MAPKAP-K3", "value": 93.0, "unit": "%"}, {"measurement": "% Activity inhibition Run 1", "setting": "[4]; MAPKAP-K3", "value": 94, "unit": "%"}, {"measurement": "% Activity inhibition Run 2", "setting": "[4]; MAPKAP-K3", "value": 92, "unit": "%"}, {"measurement": "% Activity remaining Run 1", "setting": "[4]; MAPKAP-K3", "value": 6, "unit": "%"}, {"measurement": "% Activity remaining Run 2", "setting": "[4]; MAPKAP-K3", "value": 8, "unit": "%"}, {"measurement": "% activity", "setting": "[4]; MAPKAP-K3, duplicate runs", "value": "5.6% and 7.6%"}, {"measurement": "% Inhibition, Mean", "setting": "[5]; EIF2AK3", "value": 37, "unit": "%"}, {"measurement": "% Inhibition, Run 1 / Run 2", "setting": "[5]; EIF2AK3", "value": "45% and 29%"}, {"measurement": "mean % activity", "setting": "[5]; EIF2AK3", "value": 63, "unit": "%"}, {"measurement": "% activity", "setting": "[5]; EIF2AK3, duplicate runs", "value": "55% and 71%"}, {"measurement": "% Inhibition, Mean", "setting": "[6]", "value": 5.35, "unit": "%"}, {"measurement": "% Inhibition, Run 1 / Run 2", "setting": "[6]", "value": "5% and 6%"}, {"measurement": "mean % activity", "setting": "[6]", "value": 95, "unit": "%"}, {"measurement": "% activity", "setting": "[6]; duplicate runs", "value": "95% and 94%"}]}
{"smiles": "[Cu+2].[Cu+2].[Cu+2].c1ccc(-c2csc(NCCN(CCNc3nc(-c4ccccn4)cs3)CCNc3nc(-c4ccccn4)cs3)n2)nc1.c1ccc(-c2csc(NCCN(CCNc3nc(-c4ccccn4)cs3)CCNc3nc(-c4ccccn4)cs3)n2)nc1", "note": "[[L2Cu3]6+]", "values": [{"measurement": "% Inhibition Run 1", "setting": "[1]; CHK2", "value": 86.3, "unit": "%"}, {"measurement": "% Inhibition Run 2", "setting": "[1]; CHK2", "value": 76.4, "unit": "%"}, {"measurement": "% Inhibition, Mean", "setting": "[1]; CHK2", "value": 81, "unit": "%"}, {"measurement": "mean % activity", "setting": "[1]; CHK2", "value": 19, "unit": "%"}, {"measurement": "% activity", "setting": "[1]; CHK2, Run 1", "value": 13.7, "unit": "%"}, {"measurement": "% activity", "setting": "[1]; CHK2, Run 2", "value": 23.6, "unit": "%"}, {"measurement": "% Inhibition Run 1", "setting": "[2]", "value": 45.4, "unit": "%"}, {"measurement": "% Inhibition Run 2", "setting": "[2]", "value": 66.7, "unit": "%"}, {"measurement": "% Inhibition, Mean", "setting": "[2]", "value": 56, "unit": "%"}, {"measurement": "mean % activity", "setting": "[2]", "value": 44, "unit": "%"}, {"measurement": "% activity", "setting": "[2]; Run 1", "value": 54.6, "unit": "%"}, {"measurement": "% activity", "setting": "[2]; Run 2", "value": 33.3, "unit": "%"}, {"measurement": "% Inhibition Run 1", "setting": "[3]; ERK2", "value": 12.1, "unit": "%"}, {"measurement": "% Inhibition Run 2", "setting": "[3]; ERK2", "value": 8.4, "unit": "%"}, {"measurement": "% Inhibition, Mean", "setting": "[3]; ERK2", "value": 10, "unit": "%"}, {"measurement": "mean % activity", "setting": "[3]; ERK2", "value": 90, "unit": "%"}, {"measurement": "% activity", "setting": "[3]; ERK2, Run 1", "value": 87.9, "unit": "%"}, {"measurement": "% activity", "setting": "[3]; ERK2, Run 2", "value": 91.6, "unit": "%"}, {"measurement": "% Inhibition Run 1", "setting": "[4]; MAPKAP-K3", "value": 98.5, "unit": "%"}, {"measurement": "% Inhibition Run 2", "setting": "[4]; MAPKAP-K3", "value": 89.3, "unit": "%"}, {"measurement": "% Inhibition, Mean", "setting": "[4]; MAPKAP-K3", "value": 94, "unit": "%"}, {"measurement": "mean % activity", "setting": "[4]; MAPKAP-K3", "value": 6, "unit": "%"}, {"measurement": "% activity", "setting": "[4]; MAPKAP-K3, Run 1", "value": 1.5, "unit": "%"}, {"measurement": "% activity", "setting": "[4]; MAPKAP-K3, Run 2", "value": 10.7, "unit": "%"}, {"measurement": "% Activity inhibition Mean", "setting": "[4]; MAPKAP-K3", "value": 93.9, "unit": "%"}, {"measurement": "% Activity inhibition Run 1", "setting": "[4]; MAPKAP-K3", "value": 98.5, "unit": "%"}, {"measurement": "% Activity inhibition Run 2", "setting": "[4]; MAPKAP-K3", "value": 89.3, "unit": "%"}, {"measurement": "% Activity remaining Run 1", "setting": "[4]; MAPKAP-K3", "value": 1.50, "unit": "%"}, {"measurement": "% Activity remaining Run 2", "setting": "[4]; MAPKAP-K3", "value": 10.70, "unit": "%"}, {"measurement": "% Inhibition Run 1", "setting": "[5]; EIF2AK3", "value": 39.9, "unit": "%"}, {"measurement": "% Inhibition Run 2", "setting": "[5]; EIF2AK3", "value": 30.4, "unit": "%"}, {"measurement": "% Inhibition, Mean", "setting": "[5]; EIF2AK3", "value": 35, "unit": "%"}, {"measurement": "mean % activity", "setting": "[5]; EIF2AK3", "value": 65, "unit": "%"}, {"measurement": "% activity", "setting": "[5]; EIF2AK3, Run 1", "value": 60.1, "unit": "%"}, {"measurement": "% activity", "setting": "[5]; EIF2AK3, Run 2", "value": 69.6, "unit": "%"}, {"measurement": "% Inhibition Run 1", "setting": "[6]", "value": 49.3, "unit": "%"}, {"measurement": "% Inhibition Run 2", "setting": "[6]", "value": 39.6, "unit": "%"}, {"measurement": "% Inhibition, Mean", "setting": "[6]", "value": 44, "unit": "%"}, {"measurement": "mean % activity", "setting": "[6]", "value": 56, "unit": "%"}, {"measurement": "% activity", "setting": "[6]; Run 2", "value": 60.4, "unit": "%"}]}
